# Results published in patent US20240374572A1, “METHODS FOR EXTENDING THE LIFESPAN OF CELLS AND ORGANISMS” (priority 2021, published 2024).
# How the values were obtained:
# [1] = tested on: primary cortical neuron culture; test: Oxygen glucose deprivation of primary cortical neuron culture; format: cell-based; details: FIG. 5D
# [2] = tested on: adhesion molecules VACM-1, ICAM-1, and E-selectin; details: cited from earlier work
# [3] = through transporter OCTN1; humans; cited from earlier work
# [4] = tested on: pancreatic/renal kallikrein (Klk1) related Kallikrein system; test: RNA-seq analysis of peri-infarct area of the MCAO model; format: in vivo, mice; details: FIG. 8
# Source text: FIGS. 8A and 8B that the results of RNA-seq analysis of peri-infarct area of the MCAO model.
# KLK1 is a key protein in the Kallikrein-Kinin system (KKS). The KKS promotes local blood flow and vasodilation, and may also reduce inflammation and oxidative stress. KLK1 is a serine protease that plays a critical role in regulating blood pressure, blood flow, and microcirculation. It's a secretory product of the salivary glands and the pancreas, and is also found in the kidney. KLK1 has a major function of reducing blood pressure by releasing the peptide hormone Lys-bradykinin (kallidin) from low molecular weight kininogen. This affects muscle relaxation and inflammatory processes. KLK1 also has anti-inflammatory, anti-apoptotic, anti-fibrotic, and anti-oxidative actions.
# N2 worm = test: Heat shock survival of N2 worms; format: in vivo, Caenorhabditis elegans; details: moved from 20° C. to 42° C.; a few hundred micromolar; without compound 3 hours; FIG. 2D
# Method: Besides the oxidative stress, the protective effect of ergothioneine for the worm under heat shock conditions was also examined. After the worms were cultured multiple days, they were then moved from 20° C. to 42° C. Under such a heat-shock condition, 50% of the worm died within 3 hours. However, in the presence of a few hundred micromolar concentration of ergothioneine, it extends N2 worm's average survival time from 3 hours to nearly 8-9 hours (FIG. 2D). Therefore, besides its life-extension effects under regular culture conditions, ergothioneine clearly offers protective effects to worms under oxidative stress and heat shock conditions.
# [5] = tested on: accelerated ageing mouse model; test: Accelerated ageing mouse model; format: in vivo
# Source text: FIGS. 5A, 5B, 5C, and 5D show the animal study in rats (FIG. 5A: untreated disease group; FIG. 5B treated disease group).
# Another aspect provides a method of treating a subject diagnosed to have a premature ageing disease or condition, comprising treating the subject with a therapeutically effective amount of compound I. In some embodiments, the premature ageing disease is Hutchinson-Gilford progeria syndrome. In some embodiments, the premature ageing disease is Werner syndrome. In some embodiments, the premature ageing disease or condition is premature ageing of skin, mucous membranes, scalp and/or hair of the subject. In some embodiments, the method may further include a step of identifying or determining the subject as having premature ageing disease or condition. Procedures of the determination step for premature ageing disease or condition are generally known in the field. As shown in the example section and FIGS. 4-6, the study (accelerated ageing mouse model) analyzed the physical appearance and activities of two groups (with and without the feeding of Compound I, 20 mg/kg daily) over the period of about 1 year.
# [6] = in vivo; cited from earlier work
# N2 C. elegans = test: Lifespan of N2 C. elegans under regular culture conditions; format: in vivo, Caenorhabditis elegans; details: FIG. 2A
# Source text: In this example, the biological functions of ergothioneine were investigated using (C. elegans as the model system. Using (C. elegans as the model has several prominent advantages, including short life cycle, simple experimental manipulation, and rich collection of publicly available genetic mutants (e.g., Caenorhabditis Genetics Center). In addition, its genome comprises 2/3 of human disease-related genes.
# To test the biological effect of ergothioneine, the first set of experiments was to test the toxicity level of ergothioneine on the worm model. In humans, ergothioneine is enriched up to 2 mM concentration in many parts of the body.
# (§1) At 150 μM, the lifespan of the wild type worm can be extended by 30-40% (FIG. 2A). Over the last two decades, there is numerous evidence supporting the life-extension effect by caloric restriction from various model systems (yeast, worm, fly, and mouse). Thus, the effect of ergothioneine on worm Eat-2 mutant was also examined.
# [7] = tested on: stroke middle cerebral artery occlusion (MCAO) model; test: Stroke middle cerebral artery occlusion (MCAO) model; format: in vivo; details: MCAO mice, vs vehicle
# Source text: FIGS. 7A, 7B, 7C, and 7D show the protective effect of ergothioneine on stroke MCAO model (images of tissue sample (FIG. 7A), infarct volume (FIG. 7B), neurological deficit (FIG. 7C), and cerebral blood flow (CBF) (FIG. 7D) of Sham, vehicle, and ergothioneine treated mice).
# The MCAO model is a stroke model that uses mice and rats. The model involves inserting a surgical filament into the external carotid artery and threading it into the internal carotid artery. The filament is inserted to block blood flow for a set period of time, usually 30-120 minutes. The filament is then removed to allow reperfusion, resulting in an ischemic stroke. A sham mouse is a control animal used in […]. Sham procedures are performed on a control group participant to ensure they experience the same effects as those who receive a true operation.
# As shown, ergothioneine reduces the infarct size by at least 50%. […] As shown, ergothioneine reduces neurological deficit by at least 40%. […] As shown, ergothioneine […] cerebral blood flow by at least 60%.
# worm Eat-2 mutant = test: Lifespan of worm Eat-2 mutant (caloric restriction model); format: in vivo, Caenorhabditis elegans; details: FIG. 2B
# Method: as §1
# N2 worms = test: Paraquat-induced oxidative stress in N2 worms; format: in vivo, Caenorhabditis elegans; details: FIG. 2C
# Method: Encouraged by the clear life-extension effect on worm model under regular culture conditions in the above example, the protective effect of ergothioneine under stresses was examined. In the first experiment, the worm was treated with paraquat to induce oxidative stress. Under the paraquat-induced oxidative stress conditions, N2 worms' life span was decreased by nearly 50% (FIG. 2C vs. FIG. 2A).
# daf-16 mutant worm = test: Lifespan of daf-16 mutant worm; format: in vivo, Caenorhabditis elegans; details: FIG. 3A
# Source text: To address this issue, the large collection of C. elegans mutants in Caenorhabditis Genetics Center was again utilized in this example. Among the mutants examined, the daf-16 mutant results stood out (FIGS. 3A, 3B, and 3C). […] Among genes of the IIS pathway, daf-2 encodes an insulin-like receptor, and it is the starting point of the pathway that eventually leads to daf-16. Daf-16 is the hub, where information from several different pathways merge and then use to regulate many physiological processes. Worm daf-16 mutant has an average life-span that is […] the N2 worm (FIGS. 3A, 3B, and 3C; FIGS. 4-6).
# [8] = 20 mg/kg daily feeding, about 1 year, treated vs untreated group
# [9] = mice, compared to untreated mice, FIG. 5C
structure (smiles),measurement,setting,value
"C[N+](C)(C)[C@@H](Cc1c[nH]c(=S)[nH]1)C(=O)O [ergothioneine, Ergothioneine]",cell death caused by oxygen glucose deprivation,[1],reverses cell death
same,"expression of adhesion molecules VACM-1, ICAM-1, and E-selectin",[2],decreases the expression
same,concentration accumulated in many parts of the body,[3],up to 2 mM
same,regulation of Klk1 related Kallikrein system (RNA level),[4],up-regulate
same,average survival time under heat shock,N2 worm,8 to 9 h
same,effect on the ageing process,"[5]; 20 mg/kg daily feeding, about 1 year",could effectively slow down the ageing process
same,average weight,[5]; [8],higher average weight
same,skin condition,[5]; [8],more smooth skin condition
same,physical activity of the untreated group relative to the treated group,"[5]; 20 mg/kg daily feeding, about 1 year, words describe the group without treatment",less active physically
same,extension of maximum lifespan,[5]; [9],at least 30%
same,extension of median lifespan,[5]; [9],at least 40%
same,blood-brain barrier passage,[6],can pass through the blood-brain barrier
same,life-extension effect,"N2 C. elegans; 50 μM, N2 C. elegans",robust life-extension effect
same,lifespan extension,"N2 C. elegans; 150 μM, wild type worm",30-40%
same,reduction of infarct size,[7]; FIG. 7B,at least 50%
same,reduction of neurological deficit,[7]; FIG. 7C,at least 40%
same,reduction of cerebral blood flow (CBF),[7]; FIG. 7D,at least 60%
same,life extension of Eat-2 worm mutant,worm Eat-2 mutant,can further extend the life
same,protective effect under oxidative stress,N2 worms,clearly offers protective effects and alleviates the detrimental effects of oxidative stress
same,life-extension effect in daf-16 mutant,daf-16 mutant worm,the life-extension effect was abolished
